Data as given in ChEMBL document CHEMBL3603776, “2-Phenoxy-1,4-naphthoquinones: From a Multitarget Antitrypanosomal to a Potential Antitumor Profile” (J Med Chem, 2015).
Calls of active or inactive are those of the source. The rule behind the calls is not given here.

Columns and labels:
Trypanosoma cruzi = test: Antitrypanosomal activity against trypomastigote forms of Trypanosoma cruzi Tulahuen C4 expressing LacZ gene infected in rat L6 cells after 96 hrs by inverted microscope analysis; assay type: functional, organism-based; details: Tulahuen C4, L6, 96 h
[1] = Selectivity index, ratio of IC50 for rat L6 cells to IC50 for trypomastigote forms of Trypanosoma cruzi Tulahuen C4; assay type: toxicity, cell-based; details: read-out: Ratio IC50
Leishmania donovani = test: Antitrypanosomal activity against amastigotes of Leishmania donovani MHOM/ET/67/L82 after 72 hrs by inverted microscope analysis; assay type: functional, organism-based; details: MHOM/ET/67/L82, 72 h
[2] = Selectivity index, ratio of IC50 for rat L6 cells to IC50 for amastigotes of Leishmania donovani MHOM/ET/67/L82; assay type: toxicity, cell-based; details: read-out: Ratio IC50
L6 = test: Cytotoxicity against rat L6 cells after 72 hrs by alamar blue assay; assay type: cell-based; details: L6, 72 h
Trypanosoma brucei = test: Inhibition of recombinant Trypanosoma brucei GAPDH assessed as oxidative phosphorylation of D-glyceraldehyde-3-phosphate to 1,3-bisphosphoglycerate at 5 uM by spectrophotometric method relative to 2-phenoxy-1,4-naphthoquinone
Bos taurus [3] = organism: Bos taurus; test: Inhibition of electron transport protein complex 2 in bovine hear mitochondria assessed as reduction of succinate-induced oxygen consumption at 5 uM
[4] = test system: Trypanosoma brucei rhodesiense; test: Antitrypanosomal activity against bloodstream forms of Trypanosoma brucei rhodesiense STIB 900 after 72 hrs by alamar blue assay; assay type: functional, organism-based; details: STIB 900, 72 h
[5] = Selectivity index, ratio of IC50 for rat L6 cells to IC50 for bloodstream forms of Trypanosoma brucei rhodesiense STIB 900; assay type: toxicity, cell-based; details: read-out: Ratio IC50
[6] = Inhibition of recombinant Trypanosoma brucei GAPDH assessed as oxidative phosphorylation of D-glyceraldehyde-3-phosphate to 1,3-bisphosphoglycerate by spectrophotometric method
[7] = target: Glyceraldehyde-3-phosphate dehydrogenase (Homo sapiens, UniProt P04406); test: Inhibition of recombinant human GAPDH assessed as oxidative phosphorylation of D-glyceraldehyde-3-phosphate to 1,3-bisphosphoglycerate by spectrophotometric method
Glyceraldehyde-3-phosphate dehydrogenase, sequence (P04406 whole entry): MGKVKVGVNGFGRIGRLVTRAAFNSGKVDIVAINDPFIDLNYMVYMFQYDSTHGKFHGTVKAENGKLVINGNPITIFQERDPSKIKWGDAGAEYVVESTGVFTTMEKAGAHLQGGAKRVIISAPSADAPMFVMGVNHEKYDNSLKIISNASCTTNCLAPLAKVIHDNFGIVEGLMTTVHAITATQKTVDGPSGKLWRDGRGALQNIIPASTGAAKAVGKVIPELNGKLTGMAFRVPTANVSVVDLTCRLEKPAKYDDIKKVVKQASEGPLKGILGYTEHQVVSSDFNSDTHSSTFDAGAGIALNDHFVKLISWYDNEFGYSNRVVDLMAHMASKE

[8] = Cytotoxicity against HDF after 24 hrs by MTT assay; details: Homo sapiens
IGROV-1 [9] = test: Cytotoxicity against human IGROV1 cells after 24 hrs by MTT assay; assay type: functional, cell-based; details: IGROV-1, 24 h
HT-29 [10] = test: Cytotoxicity against human HT-29 cells after 24 hrs by MTT assay; assay type: functional, cell-based; details: HT-29, 24 h
IGROV-1 [11] = test: Selectivity index, ratio of IC50 for HDF to IC50 for human IGROV1 cells
HT-29 [12] = test: Selectivity index, ratio of IC50 for HDF to IC50 for human HT-29 cells
Bos taurus [13] = organism: Bos taurus; test: Inhibition of electron transport protein complex 1 in bovine hear mitochondria assessed as reduction of NADH-induced oxygen consumption at 5 uM
Bos taurus [14] = organism: Bos taurus; test: Inhibition of electron transport protein complex 1 in bovine hear mitochondria assessed as reduction of NADH-induced ROS production at 10 uM by fluorescence plate reader analysis
Bos taurus [15] = organism: Bos taurus; test: Inhibition of electron transport protein complex 1 in bovine hear mitochondria assessed as enzyme activity per min/mg of protein using […] as substrate at 10 uM
Bos taurus [16] = organism: Bos taurus; test: Inhibition of electron transport protein complex 1 in bovine hear mitochondria assessed as reduction of NADH-induced oxygen consumption up to 10 uM

| SMILES | IC50 (Trypanosoma cruzi) [µM] | inhibition (Trypanosoma brucei) [%] | inhibition (Bos taurus [3]) | IC50 [4] [µM] | IC50 [7] [µM] | selectivity ratio [1] | IC50 (Leishmania donovani) [µM] | selectivity ratio [2] | IC50 (L6) [µM] | selectivity ratio [5] | IC50 [6] [µM] | IC50 [8] [µM] | IC50 (IGROV-1 [9]) [µM] | IC50 (HT-29 [10]) [µM] | Ratio IC50 (IGROV-1 [11]) | Ratio IC50 (HT-29 [12]) | inhibition (Bos taurus [13]) [%] | inhibition (Bos taurus [14]) | Activity (Bos taurus [15]) [µmol/min/mg] | inhibition (Bos taurus [16]) |
| --- | --- | --- | --- | --- | --- | --- | --- | --- | --- | --- | --- | --- | --- | --- | --- | --- | --- | --- | --- | --- |
| O=C1C(Oc2ccccc2)=CC(=O)c2c(O)cccc21 |  | 88 | inactive | 4.43 | 2.41 |  | 8.41 | 0.03 | 0.26 | 0.06 | 11.6 | 15 | 2.52 | 2.42 | 5.96 | 6.2 | 40 | Active |  |  |
| COc1ccc(OC2=CC(=O)c3cc4ccccc4cc3C2=O)cc1 |  | 92 | inactive | 0.38 | 1.41 |  | 2.55 | 0.09 | 0.24 | 0.63 | 15.6 | 17.1 | 2.31 | 3.83 | 7.4 | 4.46 | 40 | Active | 0.029 |  |
| COc1ccc(OC2=CC(=O)c3ccccc3C2=O)cc1 | 4.17 | 28 | inactive | 2.43 |  | 1.46 | 5.32 | 1.15 | 6.1 | 2.51 |  |  |  |  |  |  |  |  |  |  |
| COc1cccc2c1C(=O)C(Oc1ccc(NC(C)=O)cc1)=CC2=O |  | 64 | inactive | 4.15 |  |  | 5.87 | 0.11 | 0.65 | 0.16 |  |  |  |  |  |  |  |  |  |  |
| COc1cccc2c1C(=O)C(Oc1ccc(F)cc1)=CC2=O |  |  | inactive | 4.76 | 1.34 |  | 5.97 | 0.13 | 0.77 | 0.16 | 9.92 | 11.9 | 1.73 | 2.7 | 6.87 | 4.4 | 40 | Active | 0.053 |  |
| O=C1C=C(Oc2ccccc2)C(=O)c2ccccc21 |  |  |  |  | 0.59 |  |  |  |  |  | 5.73 | 9.84 | 3.43 | 4.4 | 2.87 | 2.24 |  | Active | 0.052 | inactive |
| COc1cccc2c1C(=O)C=C(Oc1ccc(NC(C)=O)cc1)C2=O | 4.06 | 52 | inactive | 0.67 |  | 1.2 | 4.77 | 1.02 | 4.89 | 7.3 |  |  |  |  |  |  |  |  |  |  |
| Cc1ccc(OC2=CC(=O)c3cc4ccccc4cc3C2=O)cc1 |  | 0 | inactive | 0.73 |  |  | 1.16 | 0.11 | 0.13 | 0.17 |  |  |  |  |  |  |  |  |  |  |

Further molecules by falling IC50 [4], results first:

| IC50 (Trypanosoma cruzi) [µM] | inhibition (Trypanosoma brucei) [%] | inhibition (Bos taurus [3]) | IC50 [4] [µM] | IC50 [7] [µM] | SMILES | selectivity ratio [1] | IC50 (Leishmania donovani) [µM] | selectivity ratio [2] | IC50 (L6) [µM] | selectivity ratio [5] | IC50 [6] [µM] | IC50 [8] [µM] | IC50 (IGROV-1 [9]) [µM] | IC50 (HT-29 [10]) [µM] | Ratio IC50 (IGROV-1 [11]) | Ratio IC50 (HT-29 [12]) | inhibition (Bos taurus [13]) [%] | inhibition (Bos taurus [14]) | Activity (Bos taurus [15]) [µmol/min/mg] | inhibition (Bos taurus [16]) |
| --- | --- | --- | --- | --- | --- | --- | --- | --- | --- | --- | --- | --- | --- | --- | --- | --- | --- | --- | --- | --- |
| 3.91 | 80 | inactive | 4.06 |  | O=C1C=C(Oc2ccc(F)cc2)C(=O)c2ccccc21 | 1.15 | 1.82 | 2.47 | 4.51 | 1.11 |  |  |  |  |  |  |  |  |  |  |
| 7.39 | 44 | inactive | 2.58 |  | Cc1ccc(OC2=CC(=O)c3cccc(O)c3C2=O)cc1 | 0.54 | 2.99 | 1.34 | 4.03 | 1.56 |  |  |  |  |  |  |  |  |  |  |
| 4.17 | 68 | inactive | 2.4 |  | CC(=O)Nc1ccc(OC2=CC(=O)c3ccccc3C2=O)cc1 | 0.8 | 4.04 | 0.83 | 3.35 | 1.39 |  |  |  |  |  |  |  |  |  |  |
|  | 40 | inactive | 2.37 |  | Cc1ccc(OC2=CC(=O)c3c(O)cccc3C2=O)cc1 |  | 5.46 | 0.19 | 1.03 | 0.44 |  |  |  |  |  |  |  |  |  |  |
| 1.62 | 24 | inactive | 2.28 |  | Cc1ccc(OC2=CC(=O)c3ccccc3C2=O)cc1 | 2.35 | 3.41 | 1.12 | 3.82 | 1.67 |  |  |  |  |  |  |  |  |  |  |
|  | 32 | inactive | 1.21 |  | O=C1C=C(Oc2ccc(F)cc2)C(=O)c2cc3ccccc3cc21 |  | 2.14 | 0.5 | 1.07 | 0.88 |  |  |  |  |  |  |  |  |  |  |
|  | 44 | inactive | 0.64 |  | COc1ccc(OC2=CC(=O)c3c(OC)cccc3C2=O)cc1 |  | 3.09 | 0.51 | 1.58 | 2.46 |  |  |  |  |  |  |  |  |  |  |
